Where a name gives a salt, the structure may show the parent alone.
Tests used:
[1] = system: fibroblasts of patients affected by Sanfilippo B (MPS IIIB); assay: HS and Lamp1 immunofluorescence in Sanfilippo B patient fibroblasts; format: cell-based, human; conditions: 20 μM, 48 hours; for Cells positive for HS (%) / Cells positive for Lamp1 (%) / Relative fluorescence intensity compared to HDFa, HS / Relative fluorescence intensity compared to HDFa, Lamp1: MPS-IIIB fibroblasts; for Effect on HS and lysosome (Lamp1) accumulation, in words: Sanfilippo B (MPS IIIB) patient fibroblasts
Description: (§1) To verify whether the selected iminosugars could exert the same effects also on the fibroblasts of patients affected by Sanfilippo disease, human adult dermal fibroblasts HDFa (purchased from Sigma-Aldrich) were used as control, and fibroblasts of patients affected by Sanfilippo A and B (MPS IIIA and IIIB) were used as disease model.
(§2) The human cell lines, fibroblasts, from patients with MPS (Sanfilippo disease) used in the examples were obtained from the G. Gaslini Institute of Genoa, “Cell Line and DNA Biobank from Patients Affected by Genetic Diseases”-Telethon Genetic Biobank Network—Telethon research service. These cells are classified with identification codes and by type of disease without allowing patient identification. Cells were collected from the patients, at the Gaslini Institute, with informed consent to the collection extended to conservation and its possible use, for diagnosis and/or research purposes according to current legislation as required by the guidelines followed by the Telethon biobanks. The Network operates abiding by the Italian Privacy and Data Protection Laws in force, including: Italian Data Protection Authority, Personal Data Protection Code, Legislative Decree no. 196, 30 Jun. 2003, published in Official Gazette No. 174 of the Italian Republic, 29 Jul. 2003; Italian Data Protection Authority, General Authorization for the processing of genetic data, 24 Jun. 2011, published in Official Gazette No. 159 of Italian Republic, 11 Jul. 2011.
(§3) Cells were cultured in the presence of the selected L-iminosugars at a dosage of 20 μM and after 48 hours were treated for HS and Lamp1 immunofluorescence. Treatment with L-iminosugars had no effect on control HDFa (Table 3).
(§4) Cells were grown in the presence of the iminosugars D-DNJ, D-NBDNJ, D-AMPDNM and D-MONDNJ at the dosage of 20 μM and after 48 hours were treated for HS and Lamp1 immunofluorescence. Treatment with D-iminosugars had no effect on HDFa and fibroblasts of patients affected by Sanfilippo A and B (MPS IIIA and MPS IIIB) both on HS and lysosome accumulation (Table 4).

[2] = system: NAGLU-silenced clone (cl5) of human neuroblastoma cell line SK-NBE; assay: Immunofluorescence against beta-amyloid peptide 1-42 in NAGLU-silenced SK-NBE clone; format: cell-based; conditions: 20 μM, 48 hours
Method: The clone (c15) stably silenced for NAGLU, the causative gene of MPS IIIB, is able to mimic the features of neurodegenerative diseases as it accumulates beta-amyloid fibers in the cytoplasm. In fact, Sanfilippo Syndrome is also defined as “childhood Alzheimer”.
The diseased clone (c15) was grown in the presence of L-DNJ, L-NBDNJ, L-AMPDNM and L-MONDNJ and the corresponding enantiomers D-DNJ, D-NBDNJ, D-AMPDNM and D-MONDNJ at a dosage of 20 μM and after 48 hours were processed by immunofluorescence against the beta-amyloid peptide 1-42. […] On contrary, treatment with the corresponding D-enantiomers has no effect on the reduction of the accumulation of amyloid fibers compared to the untreated clone (mock) (Table 7).

[3] = system: human adult dermal fibroblasts HDFa; assay: HS and Lamp1 immunofluorescence in control fibroblasts HDFa; format: cell-based; conditions: 20 μM, 48 hours
Method: as §1, §3, §4

[4] = system: HeLa tumor epithelial cells; assay: HeLa cell proliferation assay; format: cell-based; conditions: after 48 hours
Method: Furthermore, treatment with the L-deoxyminosugars L-DNJ, L-NBDNJ, L-AMPDNM and L-MONDNJ caused a decrease of the number of HeLa cells after 48 hours as shown by the cell proliferation assay reported in Table 6.

[5] = system: fibroblasts of patients affected by Sanfilippo A (MPS IIIA); assay: HS and Lamp1 immunofluorescence in Sanfilippo A patient fibroblasts; format: cell-based, human; conditions: 20 μM, 48 hours; for Cells positive for HS (%) / Cells positive for Lamp1 (%) / Relative fluorescence intensity compared to HDFa, HS / Relative fluorescence intensity compared to HDFa, Lamp1: MPS-IIIA fibroblasts; for Effect on HS and lysosome (Lamp1) accumulation, in words: Sanfilippo A (MPS IIIA) patient fibroblasts
Description: as §1, §2, §3, §4

[6] = system: control clone (WT) of human neuroblastoma cell line SK-NBE; assay: Heparan sulfate (HS) immunofluorescence in control (WT) SK-NBE clone; format: cell-based; conditions: 20 μM, 48 hours
[7] = system: NAGLU-silenced clone (cl5) of human neuroblastoma cell line SK-NBE; assay: Heparan sulfate (HS) immunofluorescence in NAGLU-silenced SK-NBE clone, Sanfilippo B model; format: cell-based; conditions: 48 hours; for Cells positive for HS (%) / Relative HS fluorescence intensity: cl5 clone, 20 μM; for Effect on HS staining / HS accumulation, in words: clone 5, 20 μM
Description: (§5) To study the effects of the compounds on the lysosomal dysfunctions in a neuronal model of Sanfilippo B disease (MPS IIIB), we recently generated stable clones of the human neuroblastoma cell line SK-NBE silenced for the NAGLU gene causative of MPS IIIB [De Pasquale V, et al. (2021). Biochim Biophys Acta Mol Cell Res. 1868, 119113.]. Mimicking the features of Sanfilippo B disease, silencing of NAGLU causes accumulation of heparan sulfate and accumulation of lysosomes in the cytoplasm of stable SK-NBE clones compared to the control (WT) clone.
Clone 5 was grown in the presence of 20 μM of each L-iminosugar under normal growth conditions and after 48 hours the accumulation of heparan sulfate (HS) was evaluated by immunofluorescence staining for HS.

[8] = system: NAGLU-silenced clone (cl5) of human neuroblastoma cell line SK-NBE; assay: Lamp1 immunofluorescence (lysosomal accumulation) in NAGLU-silenced SK-NBE clone, Sanfilippo B model; format: cell-based; conditions: 48 hours; for Cells positive for Lamp1 (%) / Relative Lamp1 fluorescence intensity: cl5 clone, 20 μM; for Effect on lysosomal enlargement and accumulation (lysosomal phenotype), in words: clone 5, 20 μM
Description: as §5
(§6) Therefore, NAGLU-silenced clone (c15) and control clone (WT) were selected to test the effect of L-deoxyminosugars (L-DNJ, L-NBDNJ, L-NNDNJ, L-HPDNJ, L-NPDNJ, L-AMPDNM and L-MONDNJ) in the hydrochloride form on the lysosomal phenotype of our cell model of Sanfilippo B (MPS IIIB).
(§7) Clone 5 was cultured in the presence of 20 μM of each L-deoxyminosugar under normal growth conditions and after 48 hours the lysosomal accumulation was evaluated with immunofluorescence technique by using a specific antibody against Lamp1 (lysosomal marker). […] Furthermore, upon treatment with the active L-deoxyminosugar the lysosomes are no longer concentrated in the perinuclear region of the cells, as occurs in several lysosomal diseases, but they are physiologically distributed throughout the cytoplasm.

[9] = system: control clone (WT) of human neuroblastoma cell line SK-NBE; assay: Lamp1 immunofluorescence in control (WT) SK-NBE clone; format: cell-based; conditions: 20 μM, 48 hours
Description: as §5, §6, §7

[10] = system: HeLa tumor epithelial cells; assay: HS immunostaining in HeLa cells; format: cell-based; conditions: 48 hours
Method: To test whether treatment with the selected L-deoxyminosugars (L-DNJ, L-NBDNJ, L-AMPDNM and L-MONDNJ) could interfere with HS synthesis we selected a cell line not mutated for NAGLU and highly decorated by heparan sulfate on the cell membrane. For this purpose, HeLa tumor epithelial cells (purchased from ATCC) were cultured for 48 hours in the presence of the selected L-iminosugars and the amount of HS was evaluated by immunostaining.

Compound | Relative amyloid fluorescence intensity [2] | Cell number [4] | Cells positive for HS (%) [6] [%] | Relative HS fluorescence intensity [6] | Relative fluorescence intensity compared to HDFa, HS [1] | Relative fluorescence intensity compared to HDFa, Lamp1 [1] | Effect on HS and lysosome (Lamp1) accumulation, in words [1] | Cells positive for HS (%) [7] [%] | Relative HS fluorescence intensity [7] | Effect on HS staining / HS accumulation, in words [7] | Cells positive for Lamp1 (%) [8] [%] | Relative Lamp1 fluorescence intensity [8] | Effect on lysosomal enlargement and accumulation (lysosomal phenotype), in words [8] | Cells positive for Lamp1 (%) [9] [%] | Relative Lamp1 fluorescence intensity [9] | Relative fluorescence intensity compared to HDFa, HS [3] | Relative fluorescence intensity compared to HDFa, Lamp1 [3] | Effect on HS accumulation on the HeLa cell membrane, in words [10] | Relative HS fluorescence intensity [10] | Relative fluorescence intensity compared to HDFa, HS [5] | other results
OC[C@@H]1[C@@H](O)[C@H](O)[C@@H](O)CN1CCCCCOCC12CC3CC(CC(C3)C1)C2 [D-AMPDNM•HCl] | 1.02 | 5.1 · 10^5 |  |  |  |  |  |  |  |  |  |  |  |  |  |  |  |  |  |  | Cells positive for HS (%) [1]: 96.4%; Cells positive for Lamp1 (%) [1]: 94.6%; Cells positive for HS (%) [3]: 4.9%; Cells positive for Lamp1 (%) [3]: 5.1%; Cells positive for HS (%) [5]: 98.7%; Cells positive for Lamp1 (%) [5]: 96.8%
OC[C@H]1NC[C@H](O)[C@@H](O)[C@@H]1O [D-DNJ•HCl, deoxynojirimycin] | 0.99 | 4.4 · 10^5 |  |  |  |  |  |  |  |  |  |  |  |  |  |  |  |  |  |  | Cells positive for HS (%) [1]: 94.9%; Cells positive for Lamp1 (%) [1]: 92.5%; Cells positive for HS (%) [3]: 2.4%; Cells positive for Lamp1 (%) [3]: 5.0%; Cells positive for HS (%) [5]: 97.3%; Cells positive for Lamp1 (%) [5]: 95.0%
COCCCCCCCCCN1C[C@H](O)[C@@H](O)[C@H](O)[C@H]1CO.Cl [D-MONDNJ•HCl] | 1.05 | 5.0 · 10^5 |  |  |  |  |  |  |  |  |  |  |  |  |  |  |  |  |  |  | Cells positive for HS (%) [1]: 95.8%; Cells positive for Lamp1 (%) [1]: 93.8%; Cells positive for HS (%) [3]: 5.0%; Cells positive for Lamp1 (%) [3]: 5.3%; Cells positive for HS (%) [5]: 99.2%; Cells positive for Lamp1 (%) [5]: 95.2%
OC[C@H]1[C@H](O)[C@@H](O)[C@H](O)CN1CCCCCOCC12CC3C[C@H](C1)C[C@H](C3)C2 [L-AMPDNM•HCl, N-adamantanomethoxypentyl L-DNJ] | 0.02 | 3.7 · 10^5 | 2.3 | 0.94 | 1.0 | 1.0 | strong reduction | 5.1 | 1.19 | dramatic reduction | 18 | 0.99 | dramatic reduction | 2.5 | 1.08 | 1.0 | 1.0 | strong reduction | 0.12 | 1.5 | Effect on the number of HeLa cells, in words [4]: decrease; Relative fluorescence intensity compared to HDFa, Lamp1 [5]: 2.2; Effect on HS and lysosome (Lamp1) accumulation, in words [5]: strong reduction
CCCCCCOCCCCCN1C[C@@H](O)[C@H](O)[C@@H](O)[C@@H]1CO [L-HPDNJ•HCl] |  | 4.3 · 10^5 | 2.4 | 0.95 | 5.7 | 3.0 | did not show any activity | 95.1 | 3.60 | did not show any activity | 87 | 2.10 | did not show any activity | 4.8 | 1.00 | 1.0 | 1.0 | did not show any activity | 0.95 | 5.4 | Relative fluorescence intensity compared to HDFa, Lamp1 [5]: 3.1; Effect on HS and lysosome (Lamp1) accumulation, in words [5]: did not show any activity
CCCCCCCCCN1C[C@@H](O)[C@H](O)[C@@H](O)[C@@H]1CO [L-NNDNJ•HCl] |  | 4.2 · 10^5 | 4.1 | 0.94 | 5.8 | 3.1 | did not show any activity | 97.5 | 3.71 | did not show any activity | 85 | 2.70 | did not show any activity | 4.1 | 1.04 | 1.0 | 1.0 | did not show any activity | 0.88 | 4.9 | Relative fluorescence intensity compared to HDFa, Lamp1 [5]: 3.0; Effect on HS and lysosome (Lamp1) accumulation, in words [5]: did not show any activity
CCCCCCCCCOCCCCCN1C[C@@H](O)[C@H](O)[C@@H](O)[C@@H]1CO [L-NPDNJ•HCl] |  | 4.7 · 10^5 | 4.4 | 0.93 | 5.9 | 3.3 | did not show any activity | 97.5 | 3.65 | did not show any activity | 84 | 2.65 | did not show any activity | 3.7 | 1.10 | 1.0 | 1.0 | did not show any activity | 1.19 | 5.2 | Relative fluorescence intensity compared to HDFa, Lamp1 [5]: 2.8; Effect on HS and lysosome (Lamp1) accumulation, in words [5]: did not show any activity

Reference: patent US20250255856A1, “THERAPEUTIC COMPOSITIONS WITH IMINO SUGARS FOR THE TREATMENT OF DISEASES WITH ACCUMULATION OF HEPARAN SULFATE” (priority 2022, published 2025)
